Consider 7 molecules from ChEMBL document CHEMBL1130389, “Synthesis and ligand binding studies of 4'-iodobenzoyl esters of tropanes and piperidines at the dopamine transporter” (J Med Chem, 1997).

SMILES strings stand for the structures.

In this experiment the target is Sodium-dependent dopamine transporter (Rattus norvegicus, UniProt P23977). The experiment in a line: Compound was tested for inhibitory activity to displace [3H]WIN-35428 at dopamine transporter in Rat Striatal Membranes.
Chain of Sodium-dependent dopamine transporter (P23977 whole entry): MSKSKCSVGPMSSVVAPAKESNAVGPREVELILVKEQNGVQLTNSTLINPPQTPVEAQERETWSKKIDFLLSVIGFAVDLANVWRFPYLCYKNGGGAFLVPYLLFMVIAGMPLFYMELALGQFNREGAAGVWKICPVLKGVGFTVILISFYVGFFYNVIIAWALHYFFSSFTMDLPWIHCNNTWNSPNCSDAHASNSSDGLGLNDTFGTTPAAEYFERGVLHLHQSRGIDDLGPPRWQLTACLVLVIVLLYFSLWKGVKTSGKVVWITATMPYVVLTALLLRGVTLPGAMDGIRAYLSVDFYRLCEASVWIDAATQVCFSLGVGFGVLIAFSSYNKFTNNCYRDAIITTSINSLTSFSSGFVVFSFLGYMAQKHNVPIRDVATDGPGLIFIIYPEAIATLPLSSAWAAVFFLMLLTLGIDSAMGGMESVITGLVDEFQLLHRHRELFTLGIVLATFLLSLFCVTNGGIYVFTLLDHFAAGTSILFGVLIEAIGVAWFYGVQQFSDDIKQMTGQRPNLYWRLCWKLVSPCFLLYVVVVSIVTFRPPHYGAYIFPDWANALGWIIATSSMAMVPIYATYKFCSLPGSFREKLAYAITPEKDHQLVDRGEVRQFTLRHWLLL
`CN1CCC(OC(=O)c2ccc(I)cc2)CC1` displayed a 50% inhibitory concentration (IC50) of 11600 nM.

`COC(=O)[C@H]1[C@@H](OC(=O)c2ccccc2O)C[C@H]2CC[C@H]1N2C`: the 50% inhibitory concentration (IC50) was 25.2 nM.

The molecule `COC(=O)[C@H]1[C@@H](OC(=O)c2ccc(I)cc2O)C[C@H]2CC[C@H]1N2C` yielded a half-inhibitory concentration (IC50) of 215 nM.

With `COC(=O)C1CN(C)CC[C@@H]1OC(=O)c1ccc(I)cc1` (some centres not stated), the 50% inhibitory concentration (IC50) was found to be 8060 nM.

Consider `COC(=O)[C@@H]1C2CC[C@H](C[C@@H]1OC(=O)c1cccc(O)c1)N2C`, for which the IC50 was 1180 nM.

With `COC(=O)[C@@H]1C2CC[C@H](C[C@@H]1OC(=O)c1ccc(O)cc1)N2C`, the IC50 was found to be 153 nM.

`COC(=O)[C@H]1[C@@H](OC(=O)c2ccccc2OC(C)=O)CC2CC[C@H]1N2C`: the half-maximal inhibitory concentration (IC50) is 69.5 nM.
